Consider 17 compounds from ChEMBL document CHEMBL1159315, “Constituents of the bark and twigs of Artocarpus dadah with cyclooxygenase inhibitory activity” (J Nat Prod, 2002).

For orientation: IC50 means the concentration at which inhibition is half-maximal. Lower therefore signals higher potency. One may read the inhibition as the percentage by which the read-out fell short of the control.

Test [1] concerns the target Prostaglandin G/H synthase 1 (Homo sapiens, UniProt P23219).
For test [2], the target named is T1, Prostaglandin G/H synthase 2 (Homo sapiens, UniProt P35354).
T1 sequence (P35354 whole entry): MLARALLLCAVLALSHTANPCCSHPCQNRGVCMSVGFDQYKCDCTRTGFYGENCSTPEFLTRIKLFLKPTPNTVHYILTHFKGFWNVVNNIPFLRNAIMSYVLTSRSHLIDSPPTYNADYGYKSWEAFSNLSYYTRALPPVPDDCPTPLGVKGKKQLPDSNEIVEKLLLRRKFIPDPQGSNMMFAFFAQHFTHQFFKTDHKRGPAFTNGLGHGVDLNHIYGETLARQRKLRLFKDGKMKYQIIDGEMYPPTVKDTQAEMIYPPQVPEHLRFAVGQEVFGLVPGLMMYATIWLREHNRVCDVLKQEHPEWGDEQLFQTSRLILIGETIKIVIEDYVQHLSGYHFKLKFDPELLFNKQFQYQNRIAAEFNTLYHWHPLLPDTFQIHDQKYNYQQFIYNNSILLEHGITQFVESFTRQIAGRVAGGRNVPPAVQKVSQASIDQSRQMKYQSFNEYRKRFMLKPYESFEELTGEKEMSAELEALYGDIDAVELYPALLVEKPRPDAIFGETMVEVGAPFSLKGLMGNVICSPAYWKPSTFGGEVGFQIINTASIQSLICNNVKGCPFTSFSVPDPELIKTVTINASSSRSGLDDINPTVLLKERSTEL

Test [3] can be described thus: Inhibition of DMBA-induced preneoplastic lesions in mouse mammary gland organ culture at 10 ug/mL. The format is functional.

Where only a bound is given, the exact number is not on record here.

Prostaglandin G/H synthase 1, sequence (P23219 whole entry): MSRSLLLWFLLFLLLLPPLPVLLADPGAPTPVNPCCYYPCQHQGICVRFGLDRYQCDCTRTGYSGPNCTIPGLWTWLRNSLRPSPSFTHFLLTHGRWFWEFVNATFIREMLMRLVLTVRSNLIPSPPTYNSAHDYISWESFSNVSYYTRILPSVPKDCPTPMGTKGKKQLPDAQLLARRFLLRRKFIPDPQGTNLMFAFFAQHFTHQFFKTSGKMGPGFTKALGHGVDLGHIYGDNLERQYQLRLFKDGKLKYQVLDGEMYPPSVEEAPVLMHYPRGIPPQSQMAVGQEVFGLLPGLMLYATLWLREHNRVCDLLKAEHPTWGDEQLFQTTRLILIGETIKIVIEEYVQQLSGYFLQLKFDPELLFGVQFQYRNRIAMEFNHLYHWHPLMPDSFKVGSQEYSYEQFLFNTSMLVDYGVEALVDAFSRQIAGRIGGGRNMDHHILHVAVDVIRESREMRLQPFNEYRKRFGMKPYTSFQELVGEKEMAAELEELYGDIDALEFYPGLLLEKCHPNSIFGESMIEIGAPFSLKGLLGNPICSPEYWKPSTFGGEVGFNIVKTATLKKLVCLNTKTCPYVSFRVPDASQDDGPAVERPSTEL

As for `CC(C)(O)[C@H](O)Cc1cc(/C=C/c2cc(O)cc(O)c2)ccc1O`, the results for the IC50 in test [1] and in test [2] were 0.48 µM and 13.9 µM, respectively.
With `CC(C)=CCc1cc(/C=C/c2cc(O)cc(O)c2)ccc1O`, the IC50 was 0.61 µM in test [1] and 9.5 µM in test [2]. Also, in test [3], testing at 10 µg/mL gave an inhibition of 7.3%.
For `CC(C)=CCc1cc(/C=C/c2cc(O)cc(O)c2)c(O)cc1O`, in that order: 4.1 µM, 36.7 µM and 0%.
For the compound `C[C@@H]1O[C@@H](O[C@H]2Cc3c(O)cc(O)cc3O[C@@H]2c2ccc(O)cc2)[C@H](O)[C@H](O)[C@H]1O`, the IC50 in test [1] turned out to be 8.3 µM; in test [2], 19.7 µM. The inhibition at 10 µg/mL in test [3] turned out to be 0%.
`Oc1cc(O)c2c(c1)O[C@H](c1ccc(O)c(O)c1)[C@@H](O)C2` [CIANIDANOL]: the IC50 in test [1] came out at 36.7 µM. The same compound showed an inhibition at 10 µg/mL in test [3] of 50%.
On to `COc1cc(C(O)C(COC(=O)/C=C/c2ccc(O)cc2)Oc2c(OC)cc(/C=C/COC(=O)/C=C/c3ccc(O)cc3)cc2OC)ccc1O` (configuration not stated) [DADAHOL A], for which the IC50 in test [1] and in test [2] was greater than 143 µM each time.
As to `COc1cc(C(O)C(COC(=O)/C=C/c2ccc(O)cc2)Oc2ccc(/C=C/COC(=O)/C=C/c3ccc(O)cc3)cc2OC)ccc1O` (configuration not stated) [DADAHOL B], the IC50 in test [1] and in test [2] was greater than 150 µM in each case.
Take `O=C1c2c(O)cc(O)cc2O[C@H](c2ccc(O)cc2O)[C@H]1O` [DIHYDROMORIN]: the figures for the IC50 in test [1] and in test [2] were 67.1 µM and greater than 100 µM, respectively. Moreover, the inhibition at 10 µg/mL in test [3] turned out to be 81.5%.
On to `CC1OC(OC2C(=O)c3c(O)cc(O)cc3OC2c2ccc(O)cc2)C(O)C(O)C1O` (configuration not stated) [ENGELETIN], for which the IC50 in test [1] and in test [2] was greater than 230 µM each time.
In the case of `Oc1ccc([C@H]2Oc3cc(O)cc(O)c3C[C@H]2O)cc1` [EPIAFZELECHIN (2R,3R)(-)], at 10 µg/mL the inhibition in test [3] was 81.5%. This compound came in with an IC50 in test [2] of 69.7 µM.
Consider `C/C(=C/Cc1c(O)ccc(C(=O)/C=C/c2ccc(O)cc2)c1O)COC(=O)/C=C/c1ccc(O)cc1` [GEMICHALCONE B], for which the values for the IC50 in test [1] and in test [2] were 14 µM and 38.4 µM, respectively. For the same compound, testing at 10 µg/mL in test [3] gave an inhibition of 33.3%.
As for `C/C(=C\Cc1c(O)ccc(C(=O)/C=C/c2ccc(O)cc2)c1O)COC(=O)/C=C/c1ccc(O)cc1` [ISOGEMICHALCONE B], the IC50 in test [1] amounted to 11.7 µM; in test [2] it was 15 µM.
Consider `Oc1cc(O)cc(-c2cc3ccc(O)cc3o2)c1` [MORACIN M], for which the IC50 in test [1] came out at 0.5 µM; in test [2], 22.3 µM. Besides, the inhibition at 10 µg/mL in test [3] stood at 33.3%.
Consider `O=c1cc(-c2ccc(O)cc2O)oc2cc(O)cc(O)c12` [NORARTOCARPETIN], for which the IC50 in test [1] was 14 µM; in test [2], greater than 100 µM. For the same compound, at 10 µg/mL the inhibition in test [3] was 85.2%.
For `Oc1cc(O)cc(/C=C/c2ccc(O)cc2O)c1` [OXYRESVERATROL], in that order: 1.4 µM, 109 µM and 33.3%.
In the case of `Oc1ccc(/C=C/c2cc(O)cc(O)c2)cc1` [RESVERATROL], in test [3], at 10 µg/mL the inhibition was 87.5%.
As to `O=C1CC(c2ccc(O)cc2O)Oc2cc(O)cc(O)c21` (configuration not stated) [STEPPOGENIN], the IC50 in test [1] was determined as 5.9 µM; in test [2], 46.4 µM. In test [3], this compound had an inhibition at 10 µg/mL of 66.7%.
